The compounds below were run against T1, human vasopressin V1b receptor (Homo sapiens, UniProt P47901) (assay: biochemical).
T1 sequence (P47901 1-424): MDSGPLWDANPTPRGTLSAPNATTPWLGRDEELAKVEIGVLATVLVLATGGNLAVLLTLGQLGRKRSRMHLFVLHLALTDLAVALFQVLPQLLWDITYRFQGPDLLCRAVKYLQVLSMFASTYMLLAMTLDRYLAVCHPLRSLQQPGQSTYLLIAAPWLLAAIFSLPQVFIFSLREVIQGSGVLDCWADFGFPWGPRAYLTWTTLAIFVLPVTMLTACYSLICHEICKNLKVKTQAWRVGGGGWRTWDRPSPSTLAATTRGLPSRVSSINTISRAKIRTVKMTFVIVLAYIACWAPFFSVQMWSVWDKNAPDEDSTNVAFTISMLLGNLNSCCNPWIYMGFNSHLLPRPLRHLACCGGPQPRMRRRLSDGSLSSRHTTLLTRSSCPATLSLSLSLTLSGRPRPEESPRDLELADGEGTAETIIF
In the case of `CCOc1ncccc1[C@]1(NC(=O)N2CCC(N3CCN(C4COC4)CC3)CC2)C(=O)N(S(=O)(=O)c2ccc(C#N)cc2)c2ccc(C#N)cc21` [Example 12, (S)—N-(5-cyano-1-((4-cyanophenyl)sulfonyl)-3-(2-ethoxypyridin-3-yl)-2-oxoindolin-3-yl)-4-(4-(oxetan-3-yl)piperazin-1-yl)piperidine-1-carboxamide], the Ki is reported as 10 to 100 nM. For `CCOc1ncccc1[C@]1(NC(=O)N2CCN(C3CCN(C4COC4)CC3)CC2)C(=O)N(S(=O)(=O)c2ccc(OC)cc2OC)c2cc(F)c(F)cc21` [Example 9, (S)—N-(1-((2,4-dimethoxyphenyl)sulfonyl)-3-(2-ethoxypyridin-3-yl)-5,6-difluoro-2-oxoindolin-3-yl)-4-(1-(oxetan-3-yl)piperidin-4-yl)piperazine-1-carboxamide], the Ki was 1 to 10 nM. In the case of `CCOc1ncccc1[C@]1(NC(=O)N2CCC(N3CCN(C4COC4)CC3)CC2)C(=O)N(S(=O)(=O)c2ccc(OC)cc2OC)c2ccc(Cl)cc21` [Example 14, (S)—N-(5-chloro-1-((2,4-dimethoxyphenyl)sulfonyl)-3-(2-ethoxypyridin-3-yl)-2-oxoindolin-3-yl)-4-(4-(oxetan-3-yl)piperazin-1-yl)piperidine-1-carboxamide], the Ki is reported as 1 to 10 nM. `CCOc1ncccc1C1(NC(=O)N2CCN(C3CCN(C4COC4)CC3)CC2)C(=O)N(S(=O)(=O)c2ccccc2)c2ccc(C#N)cc21` (centres unmarked) [Example 4, N-(5-cyano-3-(2-ethoxypyridin-3-yl)-2-oxo-1-(phenylsulfonyl)indolin-3-yl)-4-(1-(oxetan-3-yl)piperidin-4-yl)piperazine-1-carboxamide] showed a Ki of 10 to 100 nM. `CCOc1ncccc1[C@]1(NC(=O)N2CCC(N3C[C@@H]4C[C@H]3CN4C3COC3)CC2)C(=O)N(S(=O)(=O)c2ccc(OC)cc2OC)c2ccc(C#N)cc21` [Example 17, N—((S)-5-cyano-1-((2,4-dimethoxyphenyl)sulfonyl)-3-(2-ethoxypyridin-3-yl)-2-oxoindolin-3-yl)-4-((1S,4S)-5-(oxetan-3-yl)-2,5-diazabicyclo[2.2.1]heptan-2-yl)piperidine-1-carboxamide] showed a Ki of 10 to 100 nM. With `CCOc1ncccc1[C@]1(NC(=O)N2CCN(C3CCN(C4COC4)CC3)CC2)C(=O)N(S(=O)(=O)c2ccc(OC)cc2F)c2ccc(C#N)cc21` [Example 6, (S)—N-(5-cyano-3-(2-ethoxypyridin-3-yl)-1-((2-fluoro-4-methoxyphenyl)sulfonyl)-2-oxoindolin-3-yl)-4-(1-(oxetan-3-yl)piperidin-4-yl)piperazine-1-carboxamide] the Ki was 1 to 10 nM. `CCOc1ncccc1[C@]1(NC(=O)N2CCN(C3CCN(C4COC4)CC3)CC2)C(=O)N(S(=O)(=O)c2ccc(OC)c(C)c2C)c2ccc(C#N)cc21` [Example 18, (S)—N-(5-cyano-3-(2-ethoxypyridin-3-yl)-1-((4-methoxy-2,3-dimethylphenyl)sulfonyl)-2-oxoindolin-3-yl)-4-(1-(oxetan-3-yl)piperidin-4-yl)piperazine-1-carboxamide] was tested, and the Ki was 10 to 100 nM. With `COc1ccc(S(=O)(=O)N2C(=O)C(NC(=O)N3CCN(C4CCN(C5COC5)CC4)CC3)(c3cccnc3OC)c3cc(C#N)ccc32)c(OC)c1` (centres unmarked) [Example 15, N-(5-cyano-1-((2,4-dimethoxyphenyl)sulfonyl)-3-(2-methoxypyridin-3-yl)-2-oxoindolin-3-yl)-4-(1-(oxetan-3-yl)piperidin-4-yl)piperazine-1-carboxamide] the Ki was 1 to 10 nM. In the case of `CCOc1ncccc1C1(NC(=O)N2CCN(C3CCN(C4COC4)CC3)CC2)C(=O)N(S(=O)(=O)c2ccc(OC)cc2)c2ccc(C#N)cc21` (centres unmarked) [Example 3, N-(5-cyano-3-(2-ethoxypyridin-3-yl)-1-((4-methoxyphenyl)sulfonyl)-2-oxoindolin-3-yl)-4-(1-(oxetan-3-yl)piperidin-4-yl)piperazine-1-carboxamide], the Ki is reported as 1 to 10 nM. With `CCOc1ncccc1[C@]1(NC(=O)N2CCN(C3CCN(C4COC4)CC3)CC2)C(=O)N(S(=O)(=O)c2cc(F)c(OC)cc2OC)c2ccc(C#N)cc21` [Example 8, (S)—N-(5-cyano-3-(2-ethoxypyridin-3-yl)-1-((5-fluoro-2,4-dimethoxyphenyl)sulfonyl)-2-oxoindolin-3-yl)-4-(1-(oxetan-3-yl)piperidin-4-yl)piperazine-1-carboxamide] the Ki was 1 to 10 nM. In the case of `CCOc1ncccc1[C@]1(NC(=O)N2CCN(C3CCN(C4COC4)CC3)CC2)C(=O)N(S(=O)(=O)c2ccc(C#N)cc2)c2ccc(C#N)cc21` [Example 5, (S)—N-(5-cyano-1-((4-cyanophenyl)sulfonyl)-3-(2-ethoxypyridin-3-yl)-2-oxoindolin-3-yl)-4-(1-(oxetan-3-yl)piperidin-4-yl)piperazine-1-carboxamide], the Ki is reported as 1 to 10 nM. `CCOc1ncccc1[C@]1(NC(=O)N2CCC(N3CCN(C4COC4)CC3)CC2)C(=O)N(S(=O)(=O)c2ccc(OC)cc2)c2ccc(C#N)cc21` [Example 13, (S)—N-(5-cyano-3-(2-ethoxypyridin-3-yl)-1-((4-methoxyphenyl)sulfonyl)-2-oxoindolin-3-yl)-4-(4-(oxetan-3-yl)piperazin-1-yl)piperidine-1-carboxamide] gave a Ki of 10 to 100 nM. With `CCOc1ncccc1[C@]1(NC(=O)N2CCN(C3CCN(C4COC4)CC3)CC2)C(=O)N(S(=O)(=O)c2ccc(OC)cc2OC)c2ccc(C#N)cc21` [Example 1, (S)—N-(5-cyano-1-((2,4-dimethoxyphenyl)sulfonyl)-3-(2-ethoxypyridin-3-yl)-2-oxoindolin-3-yl)-4-(1-(oxetan-3-yl)piperidin-4-yl)piperazine-1-carboxamide] the Ki was < 1 nM. With `CCOc1ncccc1[C@]1(NC(=O)N2CCN(C3CCN(C4COC4)CC3)CC2)C(=O)N(S(=O)(=O)c2ccc(OC)cc2OC)c2ccc(Cl)cc21` [Example 10, (S)—N-(5-chloro-1-((2,4-dimethoxyphenyl)sulfonyl)-3-(2-ethoxypyridin-3-yl)-2-oxoindolin-3-yl)-4-(1-(oxetan-3-yl)piperidin-4-yl)piperazine-1-carboxamide] the Ki was < 1 nM.

From US9273036B2, “Oxindole derivatives carrying an oxetane substituent and use thereof for treating vasopressine-related diseases” (AbbVie Deutschland GmbH & Co. KG, priority 2013, dated 2016)
